Measured values taken from ChEMBL document CHEMBL1201862, “PubChem BioAssay data set” (2004).
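The compound was tested at five concentrations on cells cultured in 96-well plates, with a 48-hour exposure period. Here, GI50 denotes the concentration required for 50% inhibition of growth.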 The source made the active and inactive calls. Rule as the data show it: active = GI50 up to about 1.1 µM and inactive = higher. Peptide text beside a SMILES is read from it. * marks the point of attachment. X27 = Clc1c(Cl)c(Cl)c(O*)c(Cl)c1Cl; Boc = CC(C)(C)OC(=O)*; OBn = c1ccc(CO*)cc1; Bn = c1ccc(C*)cc1

Columns and labels:
Assay in all cases: NCI-60 cell line screen, 48 h
A549 = test system: A549
CAKI-1 = test system: CAKI-1
MDA-N = test system: MDA-N
NCI-H23 = test system: NCI-H23
NCI-H226 = test system: NCI-H226
OVCAR-3 = test system: OVCAR-3
K562 = test system: K562
TK-10 = test system: TK-10
UO-31 = test system: UO-31
NCI-H522 = test system: NCI-H522
Hs-578T = test system: Hs-578T
HL-60 = test system: HL-60
SNB-75 = test system: SNB-75
COLO 205 = test system: COLO 205
UACC-62 = test system: UACC-62
IGROV-1 = test system: IGROV-1
SK-MEL-5 = test system: SK-MEL-5
EKVX = test system: EKVX
A498 = test system: A498

Structure (SMILES)	GI50 (A549)	GI50 (CAKI-1)	GI50 (MDA-N)	GI50 (NCI-H23)	GI50 (NCI-H226)	GI50 (OVCAR-3)	GI50 (K562)	GI50 (TK-10)	GI50 (UO-31)	GI50 (NCI-H522)	GI50 (Hs-578T)	GI50 (HL-60)	GI50 (SNB-75)	GI50 (COLO 205)	GI50 (UACC-62)	GI50 (IGROV-1)	GI50 (SK-MEL-5)	GI50 (EKVX)	GI50 (A498)
O=C(O)c1cc2ccccc2c2c1C(=O)c1ccccc1-2	75.9 µM (inactive)	> 100 µM (inactive)	> 100 µM (inactive)	> 100 µM (inactive)	> 100 µM (inactive)	50 µM (inactive)	> 100 µM (inactive)	> 100 µM (inactive)	46 µM (inactive)	83.9 µM (inactive)	> 100 µM (inactive)	> 100 µM (inactive)	> 100 µM (inactive)	> 100 µM (inactive)	45.9 µM (inactive)	58.7 µM (inactive)	79.3 µM (inactive)	–	–
O=C(N/N=C\c1cccs1)c1ccncc1	> 100 µM (inactive)	> 100 µM (inactive)	–	> 100 µM (inactive)	> 100 µM (inactive)	> 100 µM (inactive)	> 100 µM (inactive)	> 100 µM (inactive)	> 100 µM (inactive)	> 100 µM (inactive)	> 100 µM (inactive)	> 100 µM (inactive)	> 100 µM (inactive)	> 100 µM (inactive)	> 100 µM (inactive)	> 100 µM (inactive)	> 100 µM (inactive)	> 100 µM (inactive)	> 100 µM (inactive)
O=c1n(-c2ccccc2)c(=O)n2n1C1CCC2CC1	> 100 µM (inactive)	> 100 µM (inactive)	> 100 µM (inactive)	> 100 µM (inactive)	> 100 µM (inactive)	> 100 µM (inactive)	> 100 µM (inactive)	> 100 µM (inactive)	> 100 µM (inactive)	–	> 100 µM (inactive)	> 100 µM (inactive)	> 100 µM (inactive)	> 100 µM (inactive)	> 100 µM (inactive)	> 100 µM (inactive)	> 100 µM (inactive)	> 100 µM (inactive)	> 100 µM (inactive)
COc1cc(N(Cc2ccc3oc(=O)c(-c4ccccc4)nc3c2)Cc2ccc3oc(=O)c(-c4ccccc4)nc3c2)cc(OC)c1OC	> 10 µM (inactive)	> 10 µM (inactive)	> 10 µM (inactive)	> 10 µM (inactive)	> 10 µM (inactive)	> 10 µM (inactive)	> 10 µM (inactive)	> 10 µM (inactive)	> 10 µM (inactive)	> 10 µM (inactive)	> 10 µM (inactive)	> 10 µM (inactive)	> 10 µM (inactive)	> 10 µM (inactive)	> 10 µM (inactive)	> 10 µM (inactive)	> 10 µM (inactive)	> 10 µM (inactive)	–
N#CC(NNC(=O)c1c(Cl)c(Cl)c(Cl)c(Cl)c1-c1nc2cc(C(=O)c3ccccc3)ccc2[nH]1)c1ccccc1 (configuration not stated)	6.76 µM (inactive)	21.4 µM (inactive)	2.56 µM (inactive)	7.45 µM (inactive)	9.2 µM (inactive)	4.57 µM (inactive)	3.24 µM (inactive)	21.8 µM (inactive)	14 µM (inactive)	3.39 µM (inactive)	6.78 µM (inactive)	4.69 µM (inactive)	3.95 µM (inactive)	10 µM (inactive)	–	12.5 µM (inactive)	3.4 µM (inactive)	17.9 µM (inactive)	–
O=c1[nH]c(=O)n(C2CC(O)C(COP(=O)(OCC(Cl)(Cl)Cl)OCC(Cl)(Cl)Cl)O2)cc1F (configuration not stated)	0.212 µM (active)	0.3 µM (active)	> 26 µM (inactive)	8.63 µM (inactive)	95.1 µM (inactive)	8 µM (inactive)	4.11 µM (inactive)	> 100 µM (inactive)	0.301 µM (active)	–	52.7 µM (inactive)	5.85 µM (inactive)	6.1 µM (inactive)	23.5 µM (inactive)	0.396 µM (active)	> 65.6 µM (inactive)	1.97 µM (inactive)	> 100 µM (inactive)	–
COC(=O)c1nc(-c2nc(CCNC(=O)OC(C)(C)C)sc2Cl)sc1Cl	> 100 µM (inactive)	–	49.9 µM (inactive)	44.7 µM (inactive)	33.3 µM (inactive)	68.9 µM (inactive)	36.7 µM (inactive)	> 100 µM (inactive)	89.7 µM (inactive)	–	> 100 µM (inactive)	71.9 µM (inactive)	23.1 µM (inactive)	98.4 µM (inactive)	35.3 µM (inactive)	> 100 µM (inactive)	31.8 µM (inactive)	> 100 µM (inactive)	94.6 µM (inactive)
O=C1CC(O)c2c1csc2Br (configuration not stated)	28.4 µM (inactive)	37.8 µM (inactive)	22.5 µM (inactive)	21.9 µM (inactive)	–	19.3 µM (inactive)	25.6 µM (inactive)	8.97 µM (inactive)	19.8 µM (inactive)	15.5 µM (inactive)	26.6 µM (inactive)	–	26.4 µM (inactive)	41.3 µM (inactive)	22.7 µM (inactive)	13.5 µM (inactive)	> 100 µM (inactive)	48.2 µM (inactive)	–
Cc1ccc(S(=O)(=O)NC(=O)NCC(=O)O)cc1	> 100 µM (inactive)	–	> 100 µM (inactive)	> 100 µM (inactive)	–	–	> 100 µM (inactive)	> 100 µM (inactive)	> 100 µM (inactive)	> 100 µM (inactive)	> 100 µM (inactive)	> 100 µM (inactive)	> 100 µM (inactive)	> 100 µM (inactive)	> 100 µM (inactive)	> 100 µM (inactive)	> 100 µM (inactive)	–	–
CC(=O)OCC1OC(n2c(N)c(C#N)c(-c3ccc(C)cc3)c(C#N)c2=S)C(OC(C)=O)C(OC(C)=O)C1OC(C)=O (configuration not stated)	16 µM (inactive)	63.7 µM (inactive)	17.1 µM (inactive)	21.1 µM (inactive)	3.53 µM (inactive)	31.3 µM (inactive)	40.5 µM (inactive)	18.5 µM (inactive)	17.9 µM (inactive)	–	19.8 µM (inactive)	87.5 µM (inactive)	16 µM (inactive)	16 µM (inactive)	43.5 µM (inactive)	20.3 µM (inactive)	11.1 µM (inactive)	18.3 µM (inactive)	39.9 µM (inactive)
Cc1cc(NS(=O)(=O)c2ccc(NC(=O)c3ccc4[nH]c5ccccc5c(=O)c4c3)cc2)no1	> 100 µM (inactive)	> 100 µM (inactive)	> 100 µM (inactive)	> 100 µM (inactive)	> 100 µM (inactive)	> 100 µM (inactive)	> 100 µM (inactive)	> 100 µM (inactive)	> 100 µM (inactive)	> 100 µM (inactive)	49.9 µM (inactive)	> 100 µM (inactive)	> 100 µM (inactive)	> 100 µM (inactive)	> 100 µM (inactive)	> 100 µM (inactive)	> 100 µM (inactive)	> 100 µM (inactive)	–
Cc1ccc(/N=N/C(=N/NC(=O)c2cc(Cl)ccc2C(=O)c2ccccc2)c2ccc(N(CCC#N)CCC#N)cc2C)cc1	11.5 µM (inactive)	20.4 µM (inactive)	17 µM (inactive)	21.8 µM (inactive)	10.4 µM (inactive)	3.01 µM (inactive)	17.4 µM (inactive)	19.7 µM (inactive)	22.4 µM (inactive)	4.81 µM (inactive)	27.2 µM (inactive)	–	18.2 µM (inactive)	9.14 µM (inactive)	12.9 µM (inactive)	7.59 µM (inactive)	14 µM (inactive)	17.3 µM (inactive)	–
ClCCN(CCCl)c1ccc(CNCCCNCc2ccc(N(CCCl)CCCl)cc2)cc1	3.2 µM (inactive)	6.64 µM (inactive)	–	3 µM (inactive)	6.75 µM (inactive)	2.69 µM (inactive)	1.93 µM (inactive)	2.67 µM (inactive)	2.06 µM (inactive)	2.13 µM (inactive)	3.13 µM (inactive)	1.03 µM (active)	–	1.62 µM (inactive)	1.97 µM (inactive)	1.92 µM (inactive)	1.95 µM (inactive)	2.69 µM (inactive)	7.24 µM (inactive)
CCOc1ccc(N/C(=C(/C(Cl)=C(/Cl)N(CC)CC)[N+](=O)[O-])n2nnc3ccccc32)cc1	34.4 µM (inactive)	13.4 µM (inactive)	26.7 µM (inactive)	17.2 µM (inactive)	37.8 µM (inactive)	5.24 µM (inactive)	> 100 µM (inactive)	–	19.6 µM (inactive)	–	47.6 µM (inactive)	–	20.3 µM (inactive)	21.6 µM (inactive)	13.1 µM (inactive)	–	–	23.3 µM (inactive)	15 µM (inactive)
C=C[C@]1(O[Si](C)(C)C)C[C@@]2(C(=O)OCC)C(O)C(=O)N3CCc4cc(OC)c(OC)cc4[C@]312 (some centres not stated)	> 100 µM (inactive)	> 100 µM (inactive)	> 100 µM (inactive)	> 100 µM (inactive)	> 100 µM (inactive)	> 100 µM (inactive)	> 100 µM (inactive)	> 100 µM (inactive)	> 100 µM (inactive)	–	31.3 µM (inactive)	–	> 100 µM (inactive)	> 100 µM (inactive)	21.4 µM (inactive)	> 100 µM (inactive)	44.7 µM (inactive)	> 100 µM (inactive)	40.9 µM (inactive)
CC(C)CC(NC(=O)C(CCC(=O)OCc1ccccc1)NC(=O)OC(C)(C)C)C(=O)NC(COCc1ccccc1)C(=O)NC(Cc1ccccc1)C(=O)Oc1c(Cl)c(Cl)c(Cl)c(Cl)c1Cl (configuration not stated) (Boc-E(OBn)LS(Bn)F-X27; configuration not given here)	28.6 µM (inactive)	21.2 µM (inactive)	20 µM (inactive)	16.1 µM (inactive)	–	–	–	30.3 µM (inactive)	22.2 µM (inactive)	21.9 µM (inactive)	25.1 µM (inactive)	–	40.2 µM (inactive)	26.2 µM (inactive)	20.7 µM (inactive)	20.7 µM (inactive)	18.4 µM (inactive)	16 µM (inactive)	–
